Laboratory results reported in patent US20090181980A1, “Synergistic Pharmaceutical Composition” (priority 2006, published 2009).

System: M. tuberculosis
Assay: MIC alone and in combination (synergy test)
Format: cell-based, Mycobacterium tuberculosis
Settings: for change of MIC when tested together: combination of Ethambutol and Isoniazid (negative control, FIG. 2)
Experimental: A sulfonylurea ALS inhibitor and a triazolopyrimidine ALS inhibitor were tested alone and in combination with Rifampicin. The positive controls used were Isoniazid and Streptomycin where one finds a synergistic action. The individual MICs of Isoniazid (INH) and Streptomycin (Strep) are 0.03 and 1.0 μg/ml respectively. When used in combination, these values drop to 0.0075 and 0.12 μg/ml respectively (cf. FIG. 1). This is 4 fold and 8 fold less.
The negative control used was a combination of Ethambutol (Etham) and Isoniazid (Inh) where there is no synergistic activity. […] In. Clinical Microbiology Procedures Handbook; Vol. 1-2 by Isenberg, Henry. D. Ed Washington D.C.; American Society for Microbiology/1992; Pages 5.18.1 to 5.18.28).
When used in combination, these MICs drop 0.0038 and 0.03 ug/ml respectively, which is 8-fold less for both the drugs.
When used in combination, these MICs drop to 0.0038 & 0.03 ug/ml which is 4 & 8-fold less for both the drugs.

[1] = combination of Isoniazid and Streptomycin versus individual MIC

SMILES | change of MIC when tested together | fold less MIC in combination [1] | fold less MIC in combination (combination of Rifampicin and SU versus individual MIC) | fold less MIC in combination (combination of Rifampicin and TP versus individual MIC)
CC[C@@H](CO)NCCN[C@@H](CC)CO [Ethambutol] | do not drop significantly |  |  | 
NNC(=O)c1ccncc1 [Isoniazid] | do not drop significantly | 4 fold |  | 
CO[C@H]1/C=C/O[C@@]2(C)Oc3c(C)c(O)c4c(O)c(c(/C=N/N5CCN(C)CC5)c(O)c4c3C2=O)NC(=O)/C(C)=C\C=C\[C@H](C)[C@H](O)[C@@H](C)[C@@H](O)[C@@H](C)[C@H](OC(C)=O)[C@@H]1C [Rifampicin] |  |  | 8 fold | 4 fold
[H]/N=C(/N)N[C@H]1[C@H](O)[C@@H](O)[C@H](O[C@@H]2O[C@@H](C)[C@](O)(C=O)[C@H]2O[C@@H]2O[C@@H](CO)[C@H](O)[C@@H](O)[C@@H]2NC)[C@@H](N/C(N)=N\[H])[C@@H]1O [Streptomycin] |  | 8 fold |  | 
